Measured values: ChEMBL document CHEMBL4219129, “Design, synthesis and biological evaluation of spiropyrimidinetriones oxazolidinone derivatives as antibacterial agents” (2018)
≈ marks a conversion by molar mass, not a printed value.

Columns and labels:
Assay type in all cases: functional
[1] = test system: Staphylococcus aureus; assay: Antibacterial activity against Staphylococcus aureus ATCC 29213
[2] = test system: Staphylococcus aureus; assay: Antibacterial activity against linezolid-resistant Staphylococcus aureus O-128
[3] = test system: Staphylococcus aureus; assay: Antibacterial activity against PVL positive Staphylococcus aureus
[4] = test system: Staphylococcus epidermidis; assay: Antibacterial activity against linezolid-resistant Staphylococcus epidermidis 1117174
[5] = test system: Staphylococcus aureus; assay: Antibacterial activity against Staphylococcus aureus Mu50 ATCC 700699
[6] = test system: Staphylococcus aureus; assay: Antibacterial activity against […] Staphylococcus aureus ATCC 13709 SMITH
[7] = test system: Staphylococcus aureus; assay: Antibacterial activity against methicillin-resistant Staphylococcus aureus USA300 BAA-1556
[8] = test system: Escherichia coli; assay: Antibacterial activity against Escherichia coli MG1655; settings: K-12 substr. MG1655
[9] = test system: Staphylococcus aureus; assay: Antibacterial activity against methicillin-resistant Staphylococcus aureus DB-00026
[10] = test system: Staphylococcus epidermidis; assay: Antibacterial activity against methicillin-resistant Staphylococcus epidermidis ATCC 35984
[11] = test system: Escherichia coli; assay: Antibacterial activity against TolC-deficient Escherichia coli
[12] = test system: Staphylococcus epidermidis; assay: Antibacterial activity against linezolid-resistant Staphylococcus epidermidis 1089191
[13] = test system: Staphylococcus aureus; assay: Antibacterial activity against Staphylococcus aureus FDA 209P
[14] = test system: Staphylococcus aureus; assay: Antibacterial activity against methicillin-resistant Staphylococcus aureus 1201984
[15] = test system: Staphylococcus aureus; assay: Antibacterial activity against methicillin-resistant Staphylococcus aureus 562
[16] = test system: Staphylococcus epidermidis; assay: Antibacterial activity against Staphylococcus epidermidis ATCC 12228

Compound	MIC [1] [µg/mL]	MIC [2] [µg/mL]	MIC [3] [µg/mL]	MIC [4] [µg/mL]	MIC [5] [µg/mL]	MIC [6] [µg/mL]	MIC [7] [µg/mL]	MIC [8] [µg/mL]	MIC [9] [µg/mL]	MIC [10] [µg/mL]	MIC [11] [µg/mL]	MIC [12] [µg/mL]	MIC [13] [µg/mL]	MIC [14] [µg/mL]	MIC [15] [µg/mL]	MIC [16] [µg/mL]
O=C1NC(=O)C2(Cc3cc(-c4ccc(N5C[C@H](CNC(=O)C(F)(F)F)OC5=O)cc4F)ccc3N3CCCC32)C(=O)N1 (stereo partly drawn)	32 (≈ 54.3 µM)	32 (≈ 54.3 µM)	8 (≈ 13.6 µM)	32 (≈ 54.3 µM)	8 (≈ 13.6 µM)	32 (≈ 54.3 µM)	16 (≈ 27.1 µM)	> 32	16 (≈ 27.1 µM)	4 (≈ 6.79 µM)	16 (≈ 27.1 µM)	32 (≈ 54.3 µM)	16 (≈ 27.1 µM)	8 (≈ 13.6 µM)	8 (≈ 13.6 µM)	8 (≈ 13.6 µM)
O=C1O[C@@H](CO)CN1c1ccc2c(c1)CC1(C(=O)NNC1=O)C1COCCN21 (stereo partly drawn)	> 32	> 32	> 32	32 (≈ 82.4 µM)	> 32	> 32	> 32	> 32	> 32	> 32	> 32	> 32	> 32	> 32	> 32	> 32
CC(=O)NC[C@H]1CN(c2ccc3c(c2)CC2(C(=O)NNC2=O)C2COCCN32)C(=O)O1 (stereo partly drawn)	> 32	> 32	> 32	32 (≈ 74.5 µM)	> 32	> 32	> 32	> 32	> 32	> 32	> 32	> 32	> 32	> 32	> 32	> 32
COC(=O)C1(C(=O)OC)Cc2cc(-c3ccc(N4C[C@H](CO)OC4=O)cc3F)ccc2N2CCOCC21 (stereo partly drawn)	16 (≈ 31.1 µM)	> 32	8 (≈ 15.5 µM)	> 32	16 (≈ 31.1 µM)	> 32	16 (≈ 31.1 µM)	> 32	16 (≈ 31.1 µM)	8 (≈ 15.5 µM)	16 (≈ 31.1 µM)	> 32	16 (≈ 31.1 µM)	8 (≈ 15.5 µM)	8 (≈ 15.5 µM)	8 (≈ 15.5 µM)
CCOC(=O)NC[C@H]1CN(c2ccc(-c3ccc4c(c3)CC3(C(=O)NC(=O)NC3=O)C3CCCN43)c(F)c2)C(=O)O1 (stereo partly drawn)	8 (≈ 14.1 µM)	32 (≈ 56.6 µM)	8 (≈ 14.1 µM)	> 32	4 (≈ 7.07 µM)	> 32	8 (≈ 14.1 µM)	> 32	8 (≈ 14.1 µM)	4 (≈ 7.07 µM)	8 (≈ 14.1 µM)	> 32	8 (≈ 14.1 µM)	8 (≈ 14.1 µM)	4 (≈ 7.07 µM)	4 (≈ 7.07 µM)
O=C1NC(=O)C2(Cc3cc(N4C[C@H](CO)OC4=O)ccc3N3CCOCC32)C(=O)N1 (stereo partly drawn)	> 32	> 32	> 32	32 (≈ 76.9 µM)	> 32	> 32	> 32	> 32	> 32	> 32	> 32	> 32	> 32	> 32	> 32	> 32
O=C1O[C@@H](CO)CN1c1ccc(-c2ccc3c(c2)CC2(C(=O)NNC2=O)C2CCCN32)c(F)c1 (stereo partly drawn)	4 to 32 (≈ 8.58 to 68.6 µM)	> 32	> 32	≥ 32	16 (≈ 34.3 µM)	≥ 32	32 (≈ 68.6 µM)	> 32	8 to 16 (≈ 17.2 to 34.3 µM)		> 32	> 32	32 (≈ 68.6 µM)	> 32	2 to 32 (≈ 4.29 to 68.6 µM)	2 to 32 (≈ 4.29 to 68.6 µM)
CCC(=O)NC[C@H]1CN(c2ccc(-c3ccc4c(c3)CC3(C(=O)NC(=O)NC3=O)C3COCCN43)c(F)c2)C(=O)O1 (stereo partly drawn)	8 (≈ 14.1 µM)	32 (≈ 56.6 µM)	16 (≈ 28.3 µM)	32 (≈ 56.6 µM)	4 (≈ 7.07 µM)	> 32	16 (≈ 28.3 µM)	> 32	16 (≈ 28.3 µM)	4 (≈ 7.07 µM)	4 (≈ 7.07 µM)	> 32	16 (≈ 28.3 µM)	16 (≈ 28.3 µM)	4 (≈ 7.07 µM)	4 (≈ 7.07 µM)
CS(=O)(=O)NC[C@H]1CN(c2ccc(-c3ccc4c(c3)CC3(C(=O)NC(=O)NC3=O)C3COCCN43)c(F)c2)C(=O)O1 (stereo partly drawn)	32 (≈ 54.5 µM)	> 32	32 (≈ 54.5 µM)	> 32	16 (≈ 27.2 µM)	> 32	32 (≈ 54.5 µM)	> 32	32 (≈ 54.5 µM)	16 to 32 (≈ 27.2 to 54.5 µM)	32 (≈ 54.5 µM)	> 32	32 (≈ 54.5 µM)	32 (≈ 54.5 µM)	32 (≈ 54.5 µM)	16 to 32 (≈ 27.2 to 54.5 µM)
CS(=O)(=O)NC[C@H]1CN(c2ccc(-c3ccc4c(c3)CC3(C(=O)NC(=O)NC3=O)C3CCCN43)c(F)c2)C(=O)O1 (stereo partly drawn)	16 (≈ 28 µM)	32 (≈ 56 µM)	8 (≈ 14 µM)	32 (≈ 56 µM)	8 (≈ 14 µM)	> 32	16 (≈ 28 µM)	> 32	16 (≈ 28 µM)	4 (≈ 7 µM)	16 (≈ 28 µM)	> 32	16 (≈ 28 µM)	8 (≈ 14 µM)	8 (≈ 14 µM)	8 (≈ 14 µM)
O=C1NC(=O)C2(Cc3cc(-c4ccc(N5C[C@H](CO)OC5=O)cc4F)ccc3N3CCOCC32)C(=O)N1 (stereo partly drawn)	8 (≈ 15.7 µM)	32 (≈ 62.7 µM)	8 (≈ 15.7 µM)	32 (≈ 62.7 µM)	4 (≈ 7.84 µM)	32 (≈ 62.7 µM)	8 (≈ 15.7 µM)	> 32	8 (≈ 15.7 µM)	2 (≈ 3.92 µM)	4 (≈ 7.84 µM)	> 32	8 (≈ 15.7 µM)	16 (≈ 31.3 µM)	4 (≈ 7.84 µM)	4 (≈ 7.84 µM)
COC(=O)NC[C@H]1CN(c2ccc(-c3ccc4c(c3)CC3(C(=O)NC(=O)NC3=O)C3COCCN43)c(F)c2)C(=O)O1 (stereo partly drawn)	4 (≈ 7.05 µM)	32 (≈ 56.4 µM)	8 (≈ 14.1 µM)	32 (≈ 56.4 µM)	4 (≈ 7.05 µM)	> 32	8 (≈ 14.1 µM)	> 32	8 (≈ 14.1 µM)	2 (≈ 3.52 µM)	4 (≈ 7.05 µM)	> 32	8 (≈ 14.1 µM)	16 (≈ 28.2 µM)	4 (≈ 7.05 µM)	4 (≈ 7.05 µM)
O=C1NC(=O)C2(Cc3cc(-c4ccc(N5C[C@H](CO)OC5=O)cc4F)ccc3N3CCCC32)C(=O)N1 (stereo partly drawn)	4 (≈ 8.09 µM)	32 (≈ 64.7 µM)	4 (≈ 8.09 µM)	32 (≈ 64.7 µM)	2 (≈ 4.04 µM)	32 (≈ 64.7 µM)	8 (≈ 16.2 µM)	> 32	8 (≈ 16.2 µM)	≤ 1	4 (≈ 8.09 µM)	> 32	4 (≈ 8.09 µM)	4 (≈ 8.09 µM)	2 (≈ 4.04 µM)	2 (≈ 4.04 µM)
CC(=O)NC[C@H]1CN(c2ccc(-c3ccc4c(c3)CC3(C(=O)NNC3=O)C3CCCN43)c(F)c2)C(=O)O1 (stereo partly drawn)	8 (≈ 15.8 µM)	32 (≈ 63.1 µM)	16 (≈ 31.5 µM)	> 32	4 (≈ 7.88 µM)	> 32	8 (≈ 15.8 µM)	> 32	8 (≈ 15.8 µM)	4 (≈ 7.88 µM)	16 (≈ 31.5 µM)	> 32	16 (≈ 31.5 µM)	16 (≈ 31.5 µM)	8 (≈ 15.8 µM)	8 (≈ 15.8 µM)
CC(=O)NC[C@H]1CN(c2ccc3c(c2)CC2(C(=O)NC(=O)NC2=O)C2COCCN32)C(=O)O1 (stereo partly drawn)	> 32	> 32	> 32	32 (≈ 70 µM)	> 32	> 32	> 32	> 32	> 32	> 32	> 32	> 32	> 32	> 32	> 32	> 32
COC(=O)C1(C(=O)OC)Cc2cc(-c3ccc(N4C[C@H](CNC(C)=O)OC4=O)cc3F)ccc2N2CCOCC21 (stereo partly drawn)	8 (≈ 14.4 µM)	32 (≈ 57.6 µM)	4 (≈ 7.2 µM)	32 (≈ 57.6 µM)	8 (≈ 14.4 µM)	> 32	16 (≈ 28.8 µM)	> 32	16 (≈ 28.8 µM)	4 (≈ 7.2 µM)	16 (≈ 28.8 µM)	> 32	16 (≈ 28.8 µM)	4 (≈ 7.2 µM)	4 (≈ 7.2 µM)	4 (≈ 7.2 µM)
CCC(=O)NC[C@H]1CN(c2ccc(-c3ccc4c(c3)CC3(C(=O)NC(=O)NC3=O)C3CCCN43)c(F)c2)C(=O)O1 (stereo partly drawn)	16 (≈ 29.1 µM)	32 (≈ 58.2 µM)	8 (≈ 14.6 µM)	32 (≈ 58.2 µM)	8 (≈ 14.6 µM)	32 (≈ 58.2 µM)	16 (≈ 29.1 µM)	> 32	8 (≈ 14.6 µM)	4 (≈ 7.28 µM)	8 (≈ 14.6 µM)	> 32	8 (≈ 14.6 µM)	8 (≈ 14.6 µM)	4 (≈ 7.28 µM)	8 (≈ 14.6 µM)
CCOC(=O)NC[C@H]1CN(c2ccc(-c3ccc4c(c3)CC3(C(=O)NC(=O)NC3=O)C3COCCN43)c(F)c2)C(=O)O1 (stereo partly drawn)	16 (≈ 27.5 µM)	> 32	32 (≈ 55 µM)	32 (≈ 55 µM)	8 (≈ 13.8 µM)	> 32	16 (≈ 27.5 µM)	> 32	16 (≈ 27.5 µM)	8 (≈ 13.8 µM)	8 (≈ 13.8 µM)	> 32	16 (≈ 27.5 µM)	32 (≈ 55 µM)	8 (≈ 13.8 µM)	8 (≈ 13.8 µM)
CC(=O)NC[C@H]1CN(c2ccc(-c3ccc4c(c3)CC3(C(=O)NC(=O)NC3=O)C3COCCN43)c(F)c2)C(=O)O1 (stereo partly drawn)	4 (≈ 7.25 µM)	32 (≈ 58 µM)	8 (≈ 14.5 µM)	32 (≈ 58 µM)	4 (≈ 7.25 µM)	32 (≈ 58 µM)	8 (≈ 14.5 µM)	> 32	8 (≈ 14.5 µM)	2 (≈ 3.63 µM)	2 (≈ 3.63 µM)	> 32	8 (≈ 14.5 µM)	16 (≈ 29 µM)	4 (≈ 7.25 µM)	4 (≈ 7.25 µM)
